Data as given in patent publication US7666646B2, “Crystal structure of human Pim-1 kinase protein complexes and binding pockets thereof, and uses thereof in drug design” (priority 2003, dated 2010).
Like-named read-outs stand apart in the source and are kept apart here.

Key:
Pim-1 = Pim-1 (Homo sapiens, UniProt P11309); assay: Coupled-enzyme kinase assay with S6 peptide substrate (Pim-1 IC50 determination); format: biochemical
Experimental: The assay was carried out in a total volume of 100 μl in 0.1 M HEPES buffer (pH 7.6) containing 10 mM MgCl2, 2.5 mM phosphoenolpyruvate, 0.2 mM NADH, 30 μg/ml pyruvate kinase, 10 μg/ml lactate dehydrogenase (Roche Diagnostics Corp., Indianapolis, Ind.) and 2 mM DTT in a 96-well plate, and read at 340 nm at 30° C. on a Spectramax spectrophotometer (Molecular Devices, Sunnyvale, Calif.). […] The reaction was started by addition of ATP after 10 minutes pre-incubation of the reaction mixture at 30° C. […] Kinetic analysis was performed by non-linear regression fitting using the program Prism (GraphPad software, San Diego, Calif., USA).

Casein kinase 2 (CK2) = Casein kinase 2 (CK2) (Homo sapiens, UniProt P68400); conditions: Davies et al., supra; read-out: IC50 / potency of Casein kinase 2 inhibition; cited from earlier work
PKA = PKA (Homo sapiens, UniProt P17612); conditions: in the presence of 50 μM LY294002; cited from earlier work
PI3K = conditions: cited from earlier work

Sequence of Pim-1 (P11309 whole entry): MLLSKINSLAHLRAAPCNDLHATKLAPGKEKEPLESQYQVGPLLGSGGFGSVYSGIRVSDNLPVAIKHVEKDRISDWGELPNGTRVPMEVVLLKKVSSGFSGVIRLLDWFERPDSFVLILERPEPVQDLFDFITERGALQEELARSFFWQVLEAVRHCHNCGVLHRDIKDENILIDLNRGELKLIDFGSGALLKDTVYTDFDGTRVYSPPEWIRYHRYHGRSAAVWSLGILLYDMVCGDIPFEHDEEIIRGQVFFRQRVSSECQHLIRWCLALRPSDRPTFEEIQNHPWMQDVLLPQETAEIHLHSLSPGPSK
Sequence of Casein kinase 2 (CK2) (P68400 whole entry): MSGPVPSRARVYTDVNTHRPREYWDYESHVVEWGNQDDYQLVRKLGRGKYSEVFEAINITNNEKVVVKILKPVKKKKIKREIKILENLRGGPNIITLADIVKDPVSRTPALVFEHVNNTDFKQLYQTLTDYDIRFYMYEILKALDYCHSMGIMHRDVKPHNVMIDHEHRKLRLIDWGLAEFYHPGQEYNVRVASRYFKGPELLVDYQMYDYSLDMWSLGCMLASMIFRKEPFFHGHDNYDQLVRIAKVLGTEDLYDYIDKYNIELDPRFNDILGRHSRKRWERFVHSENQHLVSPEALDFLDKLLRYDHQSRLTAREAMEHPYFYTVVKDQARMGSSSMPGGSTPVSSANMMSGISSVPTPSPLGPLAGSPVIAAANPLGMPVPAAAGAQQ

SMILES	IC50 (Pim-1)	potency of Pim-1 inhibition (Pim-1; panel of kinase inhibitors, refers to Table 1)	IC50 (Casein kinase 2 (CK2))	reduction of PKA activity (PKA)	IC50 (PI3K; Davies et al., Biochem. J. 351: 95-105 (2000), read-out: potency of PI3K inhibition reported by Davies et al.)	IC50 (PI3K; Mizuno et al., FEBS Lett. 330: 114-116 (1993) as cited, read-out: IC50 for PI3K, as originally described)
COC(=O)[C@]1(O)C[C@@H]2O[C@@]1(C)n1c3ccccc3c3c4c(c5c6ccccc6n2c5c31)C(=O)NC4 [K-252a]	0.15 µM	sub-micromolar				
O=c1cc(N2CCOCC2)oc2c(-c3ccccc3)cccc12 [LY294002, 2-(4-morpholinyl)-8-phenyl-4H-1-benzopyran-4-one]			6.9 µM	9%	[…]	[…]
